The supplement of paper PMC10883282
± gives the standard deviation of the averaged measurements.

Assays:
Test in all cases: relative viability vs DMSO control (72 h) (fraction); higher = more viable cells
HS729 = tested on: HS729
Summary of the method: (§1)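 Relative viability was measured with ATPLite and expressed as percent growth, averaged across up to triplicate wells. Sarcoma cell lines had been seeded in 384-well plates to reach 80–90% confluence, dosed after 24 h, and incubated 72 h at 37 °C, 5% CO2. All data were rescaled on a scale where 1 is full and 0 is none.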

SK-LMS-1 = tested on: SK-LMS-1
Summary of the method: as §1

MES-SA = tested on: MES-SA
Summary of the method: as §1

G401 = tested on: G401
Summary of the method: as §1

SW872 = tested on: SW872
Summary of the method: as §1

A204 = tested on: A204
Summary of the method: as §1

SYO-1 = tested on: SYO-1
Summary of the method: as §1

KHOS-NP = tested on: KHOS-NP
Summary of the method: as §1

SW684 = tested on: SW684
Summary of the method: as §1

VA-ES-BJ = tested on: VA-ES-BJ
Summary of the method: as §1

SW1353 = tested on: SW1353
Summary of the method: as §1

HT1080 = tested on: HT1080
Summary of the method: as §1

CNC(=O)c1cc(Oc2ccc(NC(=O)Nc3ccc(Cl)c(C(F)(F)F)c3)cc2)ccn1 [Sorafenib]
Conditions | relative viability
A204, 0.00017 µM | 1.07 ± 0.069
A204, 0.00051 µM | 1.1 ± 0.03
A204, 0.00152 µM | 1.09 ± 0.046
A204, 0.00457 µM | 1.11 ± 0.065
A204, 0.01372 µM | 1.06 ± 0.037
A204, 0.04115 µM | 1.08 ± 0.036
A204, 0.1235 µM | 0.914 ± 0.14
A204, 0.3704 µM | 0.567 ± 0.024
A204, 1.111 µM | 0.51 ± 0.011
A204, 3.333 µM | 0.385 ± 0.024
A204, 10 µM | 0.157 ± 0.02
G401, 0.00017 µM | 0.997 ± 0.026
G401, 0.00051 µM | 1 ± 0.02
G401, 0.00152 µM | 1.01 ± 0.034
G401, 0.00457 µM | 1.01 ± 0.024
G401, 0.01372 µM | 1.04 ± 0.036
G401, 0.04115 µM | 1.01 ± 0.019
G401, 0.1235 µM | 1.02 ± 0.016
G401, 0.3704 µM | 0.988 ± 0.013
G401, 1.111 µM | 0.893 ± 0.029
G401, 3.333 µM | 0.684 ± 0.034
G401, 10 µM | 0.147 ± 0.026
HS729, 0.00017 µM | 0.948 ± 0.029
HS729, 0.00051 µM | 0.966 ± 0.071
HS729, 0.00152 µM | 0.939 ± 0.037
HS729, 0.00457 µM | 0.978 ± 0.044
HS729, 0.01372 µM | 0.946 ± 0.02
HS729, 0.04115 µM | 1.02 ± 0.016
HS729, 0.1235 µM | 0.937 ± 0.037
HS729, 0.3704 µM | 0.85 ± 0.041
HS729, 1.111 µM | 0.858 ± 0.045
HS729, 3.333 µM | 0.811 ± 0.02
HS729, 10 µM | 0.624 ± 0.032
HT1080, 0.00017 µM | 1.06 ± 0.059
HT1080, 0.00051 µM | 1.06 ± 0.071
HT1080, 0.00152 µM | 1.1 ± 0.026
HT1080, 0.00457 µM | 1.08 ± 0.017
HT1080, 0.01372 µM | 1.07 ± 0.047
HT1080, 0.04115 µM | 1.07 ± 0.052
HT1080, 0.1235 µM | 1.08 ± 0.047
HT1080, 0.3704 µM | 1.12 ± 0.073
HT1080, 1.111 µM | 1.102 ± 0.011
HT1080, 3.333 µM | 0.94 ± 0.028
HT1080, 10 µM | 0.0932 ± 0.0023
KHOS-NP, 0.00017 µM | 1.09 ± 0.023
KHOS-NP, 0.00051 µM | 1.09 ± 0.037
KHOS-NP, 0.00152 µM | 1.1 ± 0.034
KHOS-NP, 0.00457 µM | 1.09 ± 0.02
KHOS-NP, 0.01372 µM | 1.08 ± 0.022
KHOS-NP, 0.04115 µM | 1.1 ± 0.033
KHOS-NP, 0.1235 µM | 1.103 ± 0.0053
KHOS-NP, 0.3704 µM | 1.08 ± 0.032
KHOS-NP, 1.111 µM | 0.993 ± 0.015
KHOS-NP, 3.333 µM | 0.534 ± 0.0077
KHOS-NP, 10 µM | 0.375 ± 0.036
MES-SA, 0.00017 µM | 0.928 ± 0.022
MES-SA, 0.00051 µM | 0.925 ± 0.034
MES-SA, 0.00152 µM | 0.909 ± 0.052
MES-SA, 0.00457 µM | 0.934 ± 0.062
MES-SA, 0.01372 µM | 0.923 ± 0.088
MES-SA, 0.04115 µM | 0.949 ± 0.039
MES-SA, 0.1235 µM | 1.01 ± 0.051
MES-SA, 0.3704 µM | 1.03 ± 0.039
MES-SA, 1.111 µM | 0.985 ± 0.067
MES-SA, 3.333 µM | 0.716 ± 0.021
MES-SA, 10 µM | 0.135 ± 0.0095
SK-LMS-1, 0.00017 µM | 1.1 ± 0.046
SK-LMS-1, 0.00051 µM | 1.07 ± 0.025
SK-LMS-1, 0.00152 µM | 1.11 ± 0.06
SK-LMS-1, 0.00457 µM | 1.1 ± 0.034
SK-LMS-1, 0.01372 µM | 1.1 ± 0.026
SK-LMS-1, 0.04115 µM | 1.12 ± 0.064
SK-LMS-1, 0.1235 µM | 1.05 ± 0.055
SK-LMS-1, 0.3704 µM | 1.09 ± 0.043
SK-LMS-1, 1.111 µM | 1.07 ± 0.04
SK-LMS-1, 3.333 µM | 0.713 ± 0.029
SK-LMS-1, 10 µM | 0.0735 ± 0.0075
SW684, 0.00017 µM | 1.2 ± 0.047
SW684, 0.00051 µM | 1.2 ± 0.023
SW684, 0.00152 µM | 1.18 ± 0.067
SW684, 0.00457 µM | 1.19 ± 0.062
SW684, 0.01372 µM | 1.16 ± 0.056
SW684, 0.04115 µM | 1.2 ± 0.044
SW684, 0.1235 µM | 1.23 ± 0.017
SW684, 0.3704 µM | 1.27 ± 0.019
SW684, 1.111 µM | 1.32 ± 0.051
SW684, 3.333 µM | 0.938 ± 0.013
SW684, 10 µM | 0.276 ± 0.013
SW872, 0.00017 µM | 1.09 ± 0.072
SW872, 0.00051 µM | 1.09 ± 0.056
SW872, 0.00152 µM | 1.05 ± 0.043
SW872, 0.00457 µM | 1.06 ± 0.073
SW872, 0.01372 µM | 1.09 ± 0.11
SW872, 0.04115 µM | 1.09 ± 0.081
SW872, 0.1235 µM | 1.07 ± 0.049
SW872, 0.3704 µM | 1.09 ± 0.052
SW872, 1.111 µM | 1.07 ± 0.059
SW872, 3.333 µM | 1.02 ± 0.09
SW872, 10 µM | 0.553 ± 0.019
SW1353, 0.00017 µM | 0.98 ± 0.062
SW1353, 0.00051 µM | 1.02 ± 0.019
SW1353, 0.00152 µM | 1.01 ± 0.048
SW1353, 0.00457 µM | 1.01 ± 0.021
SW1353, 0.01372 µM | 1.01 ± 0.013
SW1353, 0.04115 µM | 1.01 ± 0.034
SW1353, 0.1235 µM | 0.992 ± 0.074
SW1353, 0.3704 µM | 1.02 ± 0.049
SW1353, 1.111 µM | 1.04 ± 0.022
SW1353, 3.333 µM | 0.85 ± 0.027
SW1353, 10 µM | 0.39 ± 0.0064
SYO-1, 0.00017 µM | 0.968 ± 0.042
SYO-1, 0.00051 µM | 0.967 ± 0.075
SYO-1, 0.00152 µM | 0.96 ± 0.056
SYO-1, 0.00457 µM | 0.95 ± 0.028
SYO-1, 0.01372 µM | 0.948 ± 0.037
SYO-1, 0.04115 µM | 0.944 ± 0.021
SYO-1, 0.1235 µM | 0.916 ± 0.064
SYO-1, 0.3704 µM | 0.773 ± 0.041
SYO-1, 1.111 µM | 0.626 ± 0.013
SYO-1, 3.333 µM | 0.509 ± 0.0063
SYO-1, 10 µM | 0.137 ± 0.0095
VA-ES-BJ, 0.00017 µM | 1.04 ± 0.022
VA-ES-BJ, 0.00051 µM | 1.07 ± 0.027
VA-ES-BJ, 0.00152 µM | 1.07 ± 0.022
VA-ES-BJ, 0.00457 µM | 1.06 ± 0.013
VA-ES-BJ, 0.01372 µM | 1.07 ± 0.028
VA-ES-BJ, 0.04115 µM | 1.09 ± 0.048
VA-ES-BJ, 0.1235 µM | 1.11 ± 0.03
VA-ES-BJ, 0.3704 µM | 1.143 ± 0.011
VA-ES-BJ, 1.111 µM | 1.15 ± 0.017
VA-ES-BJ, 3.333 µM | 1.14 ± 0.051
VA-ES-BJ, 10 µM | 0.436 ± 0.0078
